{
  "source": "patent US8716284B2",
  "about": "“Adamantyl diamide derivatives and uses of same” (H. Lundbeck A/S, priority 2008, dated 2014)",
  "data": [
    {"target": "T1, rat metabotropic glutamate receptor 5 (mGluR5) (Rattus norvegicus, UniProt P31424)", "T1 construct": "expressed in transfected cells; host or cells: HEK 293", "T1 sequence (P31424 21-1171 isoform P31424-2 limits assumed)": "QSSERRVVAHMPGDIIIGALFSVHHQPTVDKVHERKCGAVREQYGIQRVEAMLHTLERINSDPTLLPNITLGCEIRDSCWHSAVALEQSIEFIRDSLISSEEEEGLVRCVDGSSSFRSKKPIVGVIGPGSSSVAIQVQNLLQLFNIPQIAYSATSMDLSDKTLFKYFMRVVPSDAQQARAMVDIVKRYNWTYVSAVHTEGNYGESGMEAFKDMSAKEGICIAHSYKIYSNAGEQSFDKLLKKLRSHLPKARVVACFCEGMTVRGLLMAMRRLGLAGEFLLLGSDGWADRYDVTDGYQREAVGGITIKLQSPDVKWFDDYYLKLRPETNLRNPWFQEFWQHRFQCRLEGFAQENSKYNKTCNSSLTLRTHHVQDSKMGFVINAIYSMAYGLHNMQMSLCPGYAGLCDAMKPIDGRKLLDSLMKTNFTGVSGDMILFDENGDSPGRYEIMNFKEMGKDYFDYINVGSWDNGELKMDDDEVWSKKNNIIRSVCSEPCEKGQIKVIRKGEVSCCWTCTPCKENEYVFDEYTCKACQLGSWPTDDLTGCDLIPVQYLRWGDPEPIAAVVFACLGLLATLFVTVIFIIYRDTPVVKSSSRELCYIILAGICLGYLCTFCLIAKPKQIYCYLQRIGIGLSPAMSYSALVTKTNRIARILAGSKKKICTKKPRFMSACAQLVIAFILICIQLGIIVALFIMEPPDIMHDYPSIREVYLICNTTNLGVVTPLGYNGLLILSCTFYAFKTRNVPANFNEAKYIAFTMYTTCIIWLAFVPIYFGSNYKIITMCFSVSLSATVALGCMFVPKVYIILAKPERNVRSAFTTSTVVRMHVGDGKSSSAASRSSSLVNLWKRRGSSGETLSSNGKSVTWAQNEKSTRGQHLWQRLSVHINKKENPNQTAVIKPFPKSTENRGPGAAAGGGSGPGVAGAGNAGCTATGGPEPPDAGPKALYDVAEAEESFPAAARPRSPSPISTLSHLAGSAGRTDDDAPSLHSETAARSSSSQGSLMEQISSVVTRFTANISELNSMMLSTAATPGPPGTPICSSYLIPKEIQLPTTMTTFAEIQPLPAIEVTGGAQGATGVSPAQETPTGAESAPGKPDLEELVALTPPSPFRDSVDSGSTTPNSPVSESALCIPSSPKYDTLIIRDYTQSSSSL", "experiment": "Calcium mobilization assay (FLIPR) for negative or positive allosteric activity, HEK 293 cells", "assay_type": "cell-based", "details": "HEK293, negative allosteric modulation, inhibition of EC80 glutamate response; read-out: FLIPR maximum inhibition", "experimental": "The cDNA for rat metabotropic glutamate receptor 5 (mGluR5) was a generous gift from S. Nakanishi (Kyoto University, Kyoto, Japan). The mGluR5 was stably expressed in a HEK 293 cell line and grown in Dulbecco's Modified Eagle Medium (DMEM) (Invitrogen, Carlsbad, Calif.) with supplements (10% bovine calf serum, 4 mM glutamine, 100 units/mL penicillin, 100 μg/mL streptomycin and 0.75 mM G1418) at 37° C., 5% CO2. Twenty-four hours prior to assay, cells were seeded into 384-well black wall microtiter plates coated with poly-D-lysine. Just prior to assay, media was aspirated and cells dye-loaded (25 μL/well) with 3 μM Fluo-4/0.01% pluronic acid in assay buffer (Hank's Balanced Saline Solution (HBSS)): 150 mM NaCl, 5 mM KCl, 1 mM CaCl2, 1 mM MgCl2, plus 20 mM N-2-Hydroxyethylpiperazine-N′-2-ethanesulfonic acid (HEPES), pH 7.4, 0.1% bovine serum albumin (BSA) and 2.5 mM probenicid) for 1 hour in 5% CO2 at 37° C. After excess dye was discarded, cells were washed in assay buffer and layered with a final volume equal to 30 μL/well. Basal fluorescence is monitored in a fluorometric imaging plate reader (FLIPR) (Molecular Devices, Sunnyvale, Calif.) with an excitation wavelength of 488 nm and an emission range of 500 to 560 nm. Laser excitation energy was adjusted so that basal fluorescence readings were approximately 10,000 relative fluorescent units. Cells were stimulated with an EC20 or an EC80 concentration of glutamate in the presence of a compound to be tested, both diluted in assay buffer, and relative fluorescent units were measured at defined intervals (exposure=0.6 sec) over a 3 min period at room temperature. Basal readings derived from negative controls were subtracted from all samples. Maximum change in fluorescence was calculated for each well. Concentration-response curves derived from the maximum change in fluorescence were analyzed by nonlinear regression (Hill equation). A negative modulator can be identified from these concentration-response curves if a compound produces a concentration dependent inhibition of the EC80 glutamate response. […] Examples 11-163 also were tested in the above assay.\nA positive modulator can be identified from these concentration-response curves if a compound produces a concentration dependent increase in the EC20 glutamate response.", "units": {"Emax": "%"}, "values": [
      {"smiles": "Cn1nc(C(=O)NC23CC4CC(CC(NC(=O)c5ccccn5)(C4)C2)C3)cc1-c1cccs1", "note": "[Example 8, Pyridine-2-carboxylic acid {3-[(1-methyl-5-thiophen-2-yl-1H-pyrazole-3-carbonyl)-amino]-adamantan-1-yl}-amide]", "Emax": "90 to 99"},
      {"smiles": "Cc1cncc(C(=O)NC23CC4CC(C2)CC(NC(=O)c2cccc(C(F)(F)F)c2F)(C4)C3)n1", "note": "[Example 150, 6-Methyl-pyrazine-2-carboxylic acid [3-(2-fluoro-3-trifluoromethyl-benzoylamino)-adamantan-1-yl]-amide]", "Emax": "70 to 99"},
      {"smiles": "Cc1cc(C(=O)NC23CC4CC(C2)CC(NC(=O)c2cncc(C)n2)(C4)C3)ccn1", "note": "[Example 156, 6-Methyl-pyrazine-2-carboxylic acid {3-[(2-methyl-pyridine-4-carbonyl)-amino]-adamantan-1-yl}-amide]", "Emax": "70 to 99"},
      {"smiles": "Cc1cccc(C(=O)NC23CC4CC(C2)CC(NC(=O)c2ccnc(C(F)(F)F)n2)(C4)C3)n1", "note": "[Example 140, 2-Trifluoromethyl-pyrimidine-4-carboxylic acid {3-[(6-methyl-pyridine-2-carbonyl)-amino]-adamantan-1-yl}-amide]", "Emax": "70 to 99"},
      {"smiles": "Cc1cccc(C(=O)NC23CC4CC(CC(NC(=O)c5ccncc5)(C4)C2)C3)n1", "note": "[Example 116, 6-Methyl-pyridine-2-carboxylic acid {3-[(pyridine-4-carbonyl)-amino]-adamantan-1-yl}-amide]", "Emax": "70 to 99"},
      {"smiles": "Cc1cccc(C(=O)NC23CC4CC(CC(NC(=O)c5cccc(F)c5)(C4)C2)C3)n1", "note": "[Example 30, 6-Methyl-pyridine-2-carboxylic acid [3-(3-fluoro-benzoylamino)-adamantan-1-yl]-amide]", "Emax": "63 to 99"},
      {"smiles": "Cc1cccc(C(=O)NC23CC4CC(CC(NC(=O)c5ccncn5)(C4)C2)C3)n1", "note": "[Example 35, Pyrimidine-4-carboxylic acid {3-[(6-methyl-pyridine-2-carbonyl)-amino]-adamantan-1-yl}-amide]", "Emax": "63 to 99"},
      {"smiles": "Cc1cncc(C(=O)NC23CC4CC(C2)CC(NC(=O)c2ncccn2)(C4)C3)n1", "note": "[Example 172, Pyrimidine-2-carboxylic acid {3-[(6-methyl-pyrazine-2-carbonyl)-amino]-adamantan-1-yl}-amide]", "Emax": "63 to 99"},
      {"smiles": "O=C(NC12CC3CC(C1)CC(NC(=O)c1ccnc(C(F)(F)F)n1)(C3)C2)c1cnccn1", "note": "[Example 190, 2-Trifluoromethyl-pyrimidine-4-carboxylic acid {3-[(pyrazine-2-carbonyl)-amino]-adamantan-1-yl}-amide]", "Emax": "63 to 99"},
      {"smiles": "Cc1ccc(C(=O)NC23CC4CC(C2)CC(NC(=O)c2cccc(C)n2)(C4)C3)nc1", "note": "[Example 130, 6-Methyl-pyridine-2-carboxylic acid {3-[(5-methyl-pyridine-2-carbonyl)-amino]-adamantan-1-yl}-amide]", "Emax": "70 to 99"},
      {"smiles": "Cc1cncc(C(=O)NC23CC4CC(CC(NC(=O)c5ccnc(Br)c5)(C4)C2)C3)n1", "note": "[Example 178, 6-Methyl-pyrazine-2-carboxylic acid {3-[(2-bromo-pyridine-4-carbonyl)-amino]-adamantan-1-yl}-amide]", "Emax": "63 to 99"},
      {"smiles": "Cc1cc(C(=O)NC23CC4CC(CC(NC(=O)c5ccccn5)(C4)C2)C3)no1", "note": "[Example 73, Pyridine-2-carboxylic acid {3-[(5-methyl-isoxazole-3-carbonyl)-amino]-adamantan-1-yl}-amide]", "Emax": "63 to 99"},
      {"smiles": "Cc1cc(C(=O)NC23CC4CC(CC(NC(=O)c5ccccn5)(C4)C2)C3)on1", "note": "[Example 78, Pyridine-2-carboxylic acid {3-[(3-methyl-isoxazole-5-carbonyl)-amino]-adamantan-1-yl}-amide]", "Emax": "63 to 99"},
      {"smiles": "COC(=O)c1cccc(C(=O)NC23CC4CC(CC(NC(=O)c5cccc(C)n5)(C4)C2)C3)n1", "note": "[Example 139, 6-{3-[(6-Methyl-pyridine-2-carbonyl)-amino]-adamantan-1-ylcarbamoyl}-pyridine-2-carboxylic acid methyl ester]", "Emax": "70 to 99"},
      {"smiles": "Cc1cccc(C(=O)NC23CC4CC(C2)CC(NC(=O)c2c5ccccc5nn2C)(C4)C3)n1", "note": "[Example 49, 2-Methyl-2H-indazole-3-carboxylic acid {3-[(6-methyl-pyridine-2-carbonyl)-amino]-adamantan-1-yl}-amide]", "Emax": "63 to 99"},
      {"smiles": "Cc1cccc(C(=O)NC23CC4CC(CC(NC(=O)c5ccc6nccn6c5)(C4)C2)C3)n1", "note": "[Example 53, Imidazo[1,2-a]pyridine-6-carboxylic acid {3-[(6-methyl-pyridine-2-carbonyl)-amino]-adamantan-1-yl}-amide]", "Emax": "63 to 99"},
      {"smiles": "COc1cccc(C(=O)NC23CC4CC(CC(NC(=O)c5ccccn5)(C4)C2)C3)n1", "note": "[Example 68, 6-Methoxy-pyridine-2-carboxylic acid {3-[(pyridine-2-carbonyl)-amino]-adamantan-1-yl}-amide]", "Emax": "63 to 99"},
      {"smiles": "O=C(NC12CC3CC(C1)CC(NC(=O)c1cccc(NCCO)n1)(C3)C2)c1cccc(F)c1", "note": "[Example 212, 6-(2-Hydroxy-ethylamino)-pyridine-2-carboxylic acid [3-(3-fluoro-benzoylamino)-adamantan-1-yl]-amide]", "Emax": "63 to 99"},
      {"smiles": "Cc1cncc(C(=O)NC23CC4CC(C2)CC(NC(=O)c2ccc5cnccc5n2)(C4)C3)n1", "note": "[Example 174, [1,6]Naphthyridine-2-carboxylic acid {3-[(6-methyl-pyrazine-2-carbonyl)-amino]-adamantan-1-yl}-amide]", "Emax": "63 to 99"},
      {"smiles": "O=C(NC12CC3CC(C1)CC(NC(=O)c1cccc(F)c1)(C3)C2)c1cccc(F)c1", "note": "[Example 15, N,N′-(1,3-adamantylene)bis(3-fluorobenzamide)]", "Emax": "63 to 99"},
      {"smiles": "Cc1cccc(C(=O)NC23CC4CC(C2)CC(NC(=O)c2cccc(CO)n2)(C4)C3)n1", "note": "[Example 134, 6-Methyl-pyridine-2-carboxylic acid {3-[(6-hydroxymethylpyridine-2-carbonyl)-amino]-adamantan-1-yl}-amide]", "Emax": "70 to 99"},
      {"smiles": "O=C(NC12CC3CC(C1)CC(NC(=O)c1cnccn1)(C3)C2)c1ccnc(Br)c1", "note": "[Example 186, Pyrazine-2-carboxylic acid {3-[(2-bromo-pyridine-4-carbonyl)-amino]-adamantan-1-yl}-amide]", "Emax": "63 to 99"},
      {"smiles": "O=C(NC12CC3CC(C1)CC(NC(=O)c1cccc(N4CCC[C@H]4CO)n1)(C3)C2)c1cccc(F)c1", "note": "[Example 249, 6-((S)-2-Hydroxymethyl-pyrrolidin-1-yl)-pyridine-2-carboxylic acid [3-(3-fluoro-benzoylamino)-adamantan-1-yl]-amide]", "Emax": "63 to 99"},
      {"smiles": "O=C(NC12CC3CC(C1)CC(NC(=O)c1cccc(N4CCCC4)n1)(C3)C2)c1ccccn1", "note": "[Example 61, 6-Pyrrolidin-1-yl-pyridine-2-carboxylic acid {3-[(pyridine-2-carbonyl)-amino]-adamantan-1-yl}-amide]", "Emax": "63 to 99"},
      {"smiles": "COCCNc1cccc(C(=O)NC23CC4CC(CC(NC(=O)c5cccc(F)c5)(C4)C2)C3)n1", "note": "[Example 245, 6-(2-Methoxy-ethylamino)-pyridine-2-carboxylic acid [3-(3-fluoro-benzoylamino)-adamantan-1-yl]-amide]", "Emax": "63 to 99"},
      {"smiles": "CC(C)(C)OC(=O)N1CCc2cc(C(=O)NC34CC5CC(C3)CC(NC(=O)c3ccccn3)(C5)C4)ccc2C1", "note": "[Example 70, 6-{3-[(Pyridine-2-carbonyl)-amino]-adamantan-1-yl-carbamoyl}-3,4-dihydro-1H-isoquinoline-2-carboxylic acid tert-butyl ester]", "Emax": "63 to 99"}
    ]}
  ]
}
